Several values for one entry are separate records, joined by “and”; a condition that tells them apart may be missing. Equal values may be shown once. Toxic doses and inconclusive results are not listed. Rule as the data show it: active = T/C of 150% or more; inactive = T/C below 125%. Square brackets hold non-standard residues; d marks the D form. Peptide text beside a SMILES is read from it. * marks the point of attachment. ξ: configuration not given here. Cbz = O=C(OCc1ccccc1)*; ξA = CC(N)C(=O)O
Tested on: L1210 leukemia ip in BDF1 mice, survival T/C
Experiment: NCI In Vivo Anticancer Drug Screen. Data for tumor model L1210 Leukemia (intraperitoneal) in B6D2F1 (BDF1) mice
Conditions: endpoint: mean survival time, higher = longer survival
Summary of the method: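 Read-out is survival time, reported as the treated-group measurement over the vehicle-control measurement.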

[1] = dose: 2.0 mg/kg/injection, schedule: Q01DX009 (ip), vehicle: saline with Tween-80
[2] = dose: 4.0 mg/kg/injection, schedule: Q01DX009 (ip), vehicle: saline with Tween-80
[3] = dose: 8.0 mg/kg/injection, schedule: Q01DX009 (ip), vehicle: saline with Tween-80
[4] = dose: 100.0 mg/kg/injection, schedule: Q01DX009 (ip), vehicle: saline
[5] = dose: 200.0 mg/kg/injection, schedule: Q01DX009 (ip), vehicle: saline
[6] = dose: 400.0 mg/kg/injection, schedule: Q01DX009 (ip), vehicle: saline
[7] = dose: 75.0 mg/kg/injection, schedule: Q01DX001 (ip), vehicle: saline
[8] = dose: 150.0 mg/kg/injection, schedule: Q01DX001 (ip), vehicle: saline
[9] = dose: 50.0 mg/kg/injection, schedule: Q01DX009 (ip), vehicle: saline
[10] = dose: 100.0 mg/kg/injection, schedule: Q01DX001 (ip), vehicle: carboxymethylcellulose (CMC)
[11] = dose: 200.0 mg/kg/injection, schedule: Q01DX001 (ip), vehicle: carboxymethylcellulose (CMC)
[12] = dose: 400.0 mg/kg/injection, schedule: Q01DX001 (ip), vehicle: carboxymethylcellulose (CMC)
[13] = dose: 50.0 mg/kg/injection, schedule: Q01DX009 (ip), vehicle: Klucel (hydroxypropylcellulose) (HPC)
[14] = dose: 100.0 mg/kg/injection, schedule: Q01DX009 (ip), vehicle: Klucel (hydroxypropylcellulose) (HPC)
[15] = dose: 200.0 mg/kg/injection, schedule: Q01DX009 (ip), vehicle: Klucel (hydroxypropylcellulose) (HPC)
[16] = dose: 100.0 mg/kg/injection, schedule: Q01DX009 (ip), vehicle: saline with Tween-80
[17] = dose: 100.0 mg/kg/injection, schedule: Q04DX003 (ip), vehicle: saline with Tween-80
[18] = dose: 200.0 mg/kg/injection, schedule: Q01DX009 (ip), vehicle: saline with Tween-80
[19] = dose: 200.0 mg/kg/injection, schedule: Q04DX003 (ip), vehicle: saline with Tween-80
[20] = dose: 400.0 mg/kg/injection, schedule: Q04DX003 (ip), vehicle: saline with Tween-80
[21] = dose: 25.0 mg/kg/injection, schedule: Q04DX003 (ip), vehicle: saline with Tween-80
[22] = dose: 50.0 mg/kg/injection, schedule: Q04DX003 (ip), vehicle: saline with Tween-80
[23] = dose: 100.0 mg/kg/injection, schedule: Q04DX003 (ip), vehicle: Klucel (hydroxypropylcellulose) (HPC)

Measured: T/C

ON=C1CSSC1
inactive: dose: 1.0 mg/kg/injection, schedule: Q01DX009 (ip), vehicle: saline with Tween-80 97 % of control | dose: 1.56 mg/kg/injection, schedule: Q04DX003 (ip), vehicle: saline with Tween-80 97 % of control | [1] 97 % of control | dose: 3.12 mg/kg/injection, schedule: Q04DX003 (ip), vehicle: saline with Tween-80 106 % of control | [2] 101 % of control | dose: 6.25 mg/kg/injection, schedule: Q04DX003 (ip), vehicle: saline with Tween-80 101 % of control | [3] 104 % of control | dose: 12.5 mg/kg/injection, schedule: Q04DX003 (ip), vehicle: saline with Tween-80 89 % of control and 90 % of control

CC(=O)CC(=O)Nc1ccc(C)c(C)c1
inactive: [4] 102 % of control | [5] 102 % of control | [6] 93 % of control

CCOC(=O)C(CCCOC(=O)c1cc([N+](=O)[O-])cc([N+](=O)[O-])c1)C(=O)OCC
inactive: dose: 100.0 mg/kg/injection, schedule: Q01DX001 (ip), vehicle: saline 94 % of control | [4] 101 % of control | dose: 200.0 mg/kg/injection, schedule: Q01DX001 (ip), vehicle: saline 98 % of control | [5] 101 % of control | dose: 400.0 mg/kg/injection, schedule: Q01DX001 (ip), vehicle: saline 91 % of control | [6] 95 % of control

[CH3][Ge]([CH3])([CH3])[CH2]CCl
inactive: dose: 100.0 mg/kg/injection, schedule: Q04DX002 (ip), vehicle: saline with Tween-80 98 % of control | dose: 200.0 mg/kg/injection, schedule: Q04DX002 (ip), vehicle: saline with Tween-80 91 % of control | dose: 400.0 mg/kg/injection, schedule: Q04DX002 (ip), vehicle: saline with Tween-80 98 % of control

CCC(O)C(CCN(C)C)(C(=O)N(C)C)c1ccccc1 (stereo not drawn)
inactive: [7] 98 % of control | [8] 100 % of control

O=C(O)CCCc1ccc(Cl)cc1
inactive: [9] 113 % of control | [4] 105 % of control | [5] 96 % of control

CN1CCC2(CC1)C(C#N)C(=O)NC(=O)C2C#N (stereo not drawn)
inactive: [10] 92 % of control | [11] 101 % of control | [12] 95 % of control

O=C(O)C(CCc1ccccc1)N1CCOCC1 (stereo not drawn)
inactive: [4] 100 % of control | [5] 101 % of control | [6] 103 % of control

Cc1sc2ccccc2[n+]1CCC(=O)O
inactive: dose: 100.0 mg/kg/injection, schedule: Q01DX009 (ip), vehicle: gum acacia 94 % of control | dose: 100.0 mg/kg/injection, schedule: Q04DX003 (ip), vehicle: gum acacia 95 % of control | dose: 200.0 mg/kg/injection, schedule: Q01DX009 (ip), vehicle: gum acacia 101 % of control | dose: 200.0 mg/kg/injection, schedule: Q04DX003 (ip), vehicle: gum acacia 96 % of control | dose: 400.0 mg/kg/injection, schedule: Q01DX009 (ip), vehicle: gum acacia 100 % of control | dose: 400.0 mg/kg/injection, schedule: Q04DX003 (ip), vehicle: gum acacia 95 % of control

CCCCCCCCCCCCCCCCSS(=O)(=O)c1ccc(C)cc1
inactive: [7] 98 % of control | [8] 91 % of control | dose: 300.0 mg/kg/injection, schedule: Q01DX001 (ip), vehicle: saline 90 % of control

CCOC(=O)/C(C#N)=N\O
inactive: dose: 25.0 mg/kg/injection, schedule: Q04DX003 (ip), vehicle: saline 98 % of control | [9] 111 % of control | dose: 50.0 mg/kg/injection, schedule: Q04DX003 (ip), vehicle: saline 111 % of control | [4] 90 % of control | dose: 100.0 mg/kg/injection, schedule: Q04DX003 (ip), vehicle: saline 104 % of control and 88 % of control

NC(=O)C1(Nc2ccc(-c3ccccc3)cc2)CCCC1
inactive: dose: 50.0 mg/kg/injection, schedule: Q01DX001 (ip), vehicle: carboxymethylcellulose (CMC) 96 % of control | [10] 96 % of control | [11] 88 % of control | [12] 90 % of control

CCCNC(C)=O
inactive: [4] 102 % of control | [5] 101 % of control | [6] 91 % of control

CC(=O)Oc1c(C)cc(O)c2ccccc12
inactive: [13] 96 % of control | [14] 111 % of control | [15] 100 % of control

CC(C)=CCCC(C)C/C=N\O (stereo not drawn)
inactive: [16] 101 % of control | [17] 100 % of control | [18] 104 % of control | [19] 103 % of control | [20] 106 % of control

CC(C)(C)OC(=O)NOc1ccc([N+](=O)[O-])cc1[N+](=O)[O-]
inactive: [1] 95 % of control | [2] 106 % of control | [3] 107 % of control | dose: 16.0 mg/kg/injection, schedule: Q01DX009 (ip), vehicle: saline with Tween-80 101 % of control | [21] 105 % of control | [22] 92 % of control | dose: 75.0 mg/kg/injection, schedule: Q01DX001 (ip), vehicle: carboxymethylcellulose (CMC) 96 % of control | [17] 88 % of control

CCCCCCCCCCCCCCCCS(=O)CCCCCCCCCCCCCCCC
inactive: [13] 88 % of control | [14] 92 % of control

O=C(Nc1cc(S(=O)(=O)F)ccc1Cl)Oc1ccc([N+](=O)[O-])cc1
inactive: [17] 102 % of control | [19] 97 % of control | [20] 100 % of control

O=C(Nc1cccc(C(F)(F)F)c1)Nc1cccc2c1C(=O)c1ccccc1C2=O
inactive: [16] 88 % of control | [18] 87 % of control

COc1cc(C(=O)N(C)OC)cc(OC)c1OC
inactive: [10] 96 % of control | [11] 91 % of control | [12] 100 % of control

CC(NC(=O)CNC(=O)OCc1ccccc1)C(N)=O (stereo not drawn) (Cbz-Gly-[ξA]-NH2)
inactive: [17] 102 % of control | [19] 101 % of control | [20] 101 % of control

O=c1ccc2c([nH]1)CCC2
inactive: dose: 25.0 mg/kg/injection, schedule: Q01DX009 (ip), vehicle: saline 111 % of control | [21] 94 % of control | [9] 121 % of control | [22] 98 % of control | [4] 101 % of control | [23] 100 % of control | [17] 94 % of control

c1ccc(Nc2c3ccccc3nc3ccccc23)cc1
inactive: dose: 100.0 mg/kg/injection, schedule: Q04DX003 (ip), vehicle: other 115 % of control

CCOC(=O)c1cnn(-c2ccccc2)c1C
inactive: [14] 94 % of control | [23] 112 % of control | [15] 94 % of control | dose: 200.0 mg/kg/injection, schedule: Q04DX003 (ip), vehicle: Klucel (hydroxypropylcellulose) (HPC) 95 % of control | dose: 400.0 mg/kg/injection, schedule: Q01DX009 (ip), vehicle: Klucel (hydroxypropylcellulose) (HPC) 102 % of control | dose: 400.0 mg/kg/injection, schedule: Q04DX003 (ip), vehicle: Klucel (hydroxypropylcellulose) (HPC) 88 % of control

COC(=N)Cc1ccc(OC)c(OC)c1
inactive: [16] 94 % of control | [18] 89 % of control | dose: 400.0 mg/kg/injection, schedule: Q01DX009 (ip), vehicle: saline with Tween-80 92 % of control
